Patent publication US8557767B2, “Synthetic apolipoprotein E mimicking polypeptides and methods of use” (UAB Research Foundation, priority 2007, dated 2013)

Experiments:
[1] = tested on: HepG2 cells; assay: Apo A-I / prebeta-HDL secretion by HepG2 cells; assay type: cell-based; settings: for prebeta-HDL production: equal amount on weight basis (50 ug/ml), first overnight incubation; for prebeta-HDL amount after second and third overnight incubation: fresh cell medium without peptide
[2] = tested on: human VLDL; settings: cited from earlier work
[3] = tested on: atherogenic apo B-containing lipoproteins in human plasma; settings: cited from earlier work
[4] = tested on: apo E null mice; assay: Oral feeding of peptides in chow to apo E null mice: plasma cholesterol and aortic sinus lesion
Procedure: The peptides were mixed in normal chow (1 mg/4 g chow) and fed ad libitum.
The study was continued for 6 weeks.

[5] = tested on: apo E null mice; assay: Plasma cholesterol in apo E null mice after i.v. 18L-2Y or R18L-2Y; assay type: in vivo; settings: 100 ug i.v.
From the text: Dual domain peptide that has LRKLRKRLLR (SEQ ID NO: 1), a sequence from apo E putative receptor binding domain, covalently linked to 18A (SEQ ID NO: 11) enhances uptake and degradation of apo B-containing lipoproteins. […] It has also been previously shown that that if the Lys residues are replaced by Arg, compared to the Lys-containing peptide, the resulting Arg-containing peptide has only 2% of lysis (Aikawa, M., et al. Circulation 106:1390-1396 2002). […] Rearrangement of the nonpolar face of 18L to incorporate aromatic residues at the center of the nonpolar face yields 18L-2. Addition of Tyr (for radiolabeling) yields 18L-2Y (FIG. 15). All of the Lys residues changed to Arg results in R18L2Y (FIG. 15).

[6] = tested on: apo E null mice; assay: Plasma cholesterol in apo E null mice after i.v. dual-domain peptides; assay type: in vivo; settings: iv, n=4
Procedure: The peptides represented are Ac-hE-18A-NH2, Ac-hE4F-NH2, and Ac-hE-Sc2F-NH2. Peptides Ac-hE-18A-NH2, Ac-hE-4F-NH2 and Ac-hE-Sc18A were administered (i.v.) to apo E null mice (n=4) and plasma cholesterol values were determined at before administration (0 min), 5 min and 2 h after administration.
As described above, peptides Ac-hE-18A-NH2, Ac-hE-4F-NH2 and Ac-hE-Sc18A were administered (iv) to apo E null mice (n=4) and plasma cholesterol values were determined at before administration (0 min), 5 min and 2 h after administration.

Row | Substance | prebeta-HDL production [1] | prebeta-HDL amount after second and third overnight incubation [1] | association with atherogenic apo B-containing lipoproteins [3] | other results
1 | DWFKAFYDKVAEKFKEAF [4F, reference compound] | produced preβ-HDL | levels similar to that of control cell medium | – | –
2 | Ac-18A-NH2: control peptide; end protected 18A (DWLKAFYDKVAEKLKEAF) (Ac-DWLKAFYDKVAEKLKEAF-NH2) [reference compound] | – | – | not | interaction with VLDL [2]: displacement of apo E from VLDL
3 | Ac-GFRRFLGSWARIYRAFVG-NH2 [R18L-2Y] | – | – | – | plasma cholesterol at end of 6 week feeding ([4]; 1 mg per 4 g chow): significantly reduced; atherosclerotic lesion formation, aortic sinus, Oil Red O ([4]; 1 mg per 4 g chow, 6 weeks, four week old female mice): significantly less lesion formation; plasma cholesterol levels at 15 days and 30 days ([4]; 1 mg/4 g of chow per animal per day, n=5): significant decrease; ability to clear plasma cholesterol [5]: increased ability to clear plasma cholesterol compared to 18L-2Y
4 | LRKLRKRLLR | – | – | not | –
5 | Ac-hE-4F-NH2: dual-domain cationic peptide, hE linked to 4F, end protected (Ac-LRKLRKRLLRDWFKAFYDKVAEKFKEAF-NH2) | produced preβ-HDL | produced significant amounts | – | reduction in plasma cholesterol levels at 2 h time point [6]: large reduction
